{
  "source": "patent EP4635500A1",
  "about": "“THERAPEUTIC AGENT FOR BACTERIAL INFECTION” (Sumitomo Pharma Co., Ltd., priority 2022, dated 2024)",
  "test_system": "Enterobacterales",
  "assay": "MIC, broth microdilution, CDC/FDA Antibiotic Resistance Isolate Bank (Example 7, Tables 8, 11, 12)",
  "format": "cell-based",
  "conditions": "read-out: MIC",
  "note": "Where two headings read alike, the source gives them in different places.",
  "data": [
    {"smiles": "C[C@H]1COc2c(N3CCN(C)CC3)c(F)cc3c(=O)c(C(=O)O)cn1c23", "note": "[Levofloxacin, levofloxacin]", "values": [
      {"measurement": "MIC", "setting": "Citrobacter freundii, KUB No. 5654, AR Bank # 157", "result": "> 64", "unit": "µg/mL"},
      {"measurement": "MIC", "setting": "Enterobacter cloacae, Enterobacter cloacae KUB No. 5792, AR Bank #448", "result": "> 64", "unit": "µg/mL"},
      {"measurement": "MIC", "setting": "Enterobacter cloacae, Enterobacter cloacae KUB No. 5807, AR Bank #501", "result": 1, "unit": "µg/mL"},
      {"measurement": "MIC", "setting": "Enterobacter cloacae, Enterobacter cloacae KUB No. 5808, AR Bank #502", "result": 8, "unit": "µg/mL"},
      {"measurement": "MIC", "setting": "Enterobacter cloacae, Enterobacter cloacae complex, KUB No. 5661, AR Bank # 164", "result": 0.12, "unit": "µg/mL"},
      {"measurement": "MIC", "setting": "Enterobacter cloacae, Enterobacter cloacae group, KUB No. 5629, AR Bank # 132", "result": 0.06, "unit": "µg/mL"},
      {"measurement": "MIC", "setting": "Enterobacter cloacae, KUB No. 5529, AR Bank# 32", "result": 1, "unit": "µg/mL"},
      {"measurement": "MIC", "setting": "Enterobacter cloacae, KUB No. 5535, AR Bank# 38", "result": 64, "unit": "µg/mL"},
      {"measurement": "MIC", "setting": "Enterobacter cloacae, KUB No. 5547, AR Bank# 50", "result": 8, "unit": "µg/mL"},
      {"measurement": "MIC", "setting": "Enterobacter cloacae, KUB No. 5550, AR Bank# 53", "result": 32, "unit": "µg/mL"},
      {"measurement": "MIC", "setting": "Enterobacter cloacae, KUB No. 5557, AR Bank# 60", "result": 0.06, "unit": "µg/mL"},
      {"measurement": "MIC", "setting": "Enterobacter cloacae, KUB No. 5660, AR Bank # 163", "result": 32, "unit": "µg/mL"},
      {"measurement": "MIC", "setting": "Enterobacter cloacae, KUB No. 5761, AR Bank # 365", "result": 4, "unit": "µg/mL"},
      {"measurement": "MIC", "setting": "Enterobacter cloacae, KUB No. 5762, AR Bank # 366", "result": 0.5, "unit": "µg/mL"},
      {"measurement": "MIC", "setting": "Enterobacter cloacae, KUB No. 5763, AR Bank # 367", "result": 1, "unit": "µg/mL"},
      {"measurement": "MIC", "setting": "Enterobacter cloacae, KUB No. 5778, AR Bank # 432", "result": 0.12, "unit": "µg/mL"},
      {"measurement": "MIC", "setting": "Enterobacter cloaccae, KUB No. 5651, AR Bank # 154", "result": 1, "unit": "µg/mL"},
      {"measurement": "MIC", "setting": "Enterobacter clooreae, KUB No. 5633, AR Bank # 136", "result": 16, "unit": "µg/mL"},
      {"measurement": "MIC", "setting": "Escherichia coli, Escherichia coli KUB No. 5783, AR Bank #437", "result": 32, "unit": "µg/mL"},
      {"measurement": "MIC", "setting": "Escherichia coli, Escherichia coli KUB No. 5794, AR Bank #450", "result": 0.12, "unit": "µg/mL"},
      {"measurement": "MIC", "setting": "Escherichia coli, Escherichia coli KUB No. 5795, AR Bank #451", "result": 32, "unit": "µg/mL"},
      {"measurement": "MIC", "setting": "Escherichia coli, Escherichia coli KUB No. 5796, AR Bank #452", "result": 64, "unit": "µg/mL"},
      {"measurement": "MIC", "setting": "Escherichia coli, Escherichia coli KUB No. 5803, AR Bank #861", "result": 16, "unit": "µg/mL"},
      {"measurement": "MIC", "setting": "Escherichia coli, KUB No. 5601, AR Bank # 104", "result": 16, "unit": "µg/mL"},
      {"measurement": "MIC", "setting": "Escherichia coli, KUB No. 5611, AR Bank # 114", "result": 32, "unit": "µg/mL"},
      {"measurement": "MIC", "setting": "Escherichia coli, KUB No. 5615, AR Bank # 118", "result": 32, "unit": "µg/mL"},
      {"measurement": "MIC", "setting": "Escherichia coli, KUB No. 5616, AR Bank # 119", "result": 32, "unit": "µg/mL"},
      {"measurement": "MIC", "setting": "Escherichia coli, KUB No. 5625, AR Bank # 128", "result": 32, "unit": "µg/mL"},
      {"measurement": "MIC", "setting": "Escherichia coli, KUB No. 5634, AR Bank # 137", "result": 64, "unit": "µg/mL"},
      {"measurement": "MIC", "setting": "Escherichia coli, KUB No. 5646, AR Bank # 149", "result": 8, "unit": "µg/mL"},
      {"measurement": "MIC", "setting": "Escherichia coli, KUB No. 5647, AR Bank # 150", "result": 32, "unit": "µg/mL"},
      {"measurement": "MIC", "setting": "Escherichia coli, KUB No. 5648, AR Bank # 151", "result": 32, "unit": "µg/mL"},
      {"measurement": "MIC", "setting": "Escherichia coli, KUB No. 5659, AR Bank # 162", "result": 32, "unit": "µg/mL"},
      {"measurement": "MIC", "setting": "Escherichia coli, KUB No. 5764, AR Bank # 368", "result": 0.06, "unit": "µg/mL"},
      {"measurement": "MIC", "setting": "Escherichia coli, KUB No. 5765, AR Bank # 369", "result": 0.06, "unit": "µg/mL"},
      {"measurement": "MIC", "setting": "Escherichia coli, KUB No. 5766, AR Bank # 370", "result": 16, "unit": "µg/mL"},
      {"measurement": "MIC", "setting": "Escherichia coli, KUB No. 5767, AR Bank # 371", "result": 16, "unit": "µg/mL"},
      {"measurement": "MIC", "setting": "Escherichia coli, KUB No. 5768, AR Bank # 372", "result": 16, "unit": "µg/mL"},
      {"measurement": "MIC", "setting": "Escherichia coli, KUB No. 5769, AR Bank # 373", "result": 32, "unit": "µg/mL"},
      {"measurement": "MIC", "setting": "Escherichia coli, KUB No. 5770, AR Bank # 374", "result": 32, "unit": "µg/mL"},
      {"measurement": "MIC", "setting": "Escherichia coli, KUB No. 5774, AR Bank # 378", "result": 8, "unit": "µg/mL"},
      {"measurement": "MIC", "setting": "Escherichia coli, KUB No. 5779, AR Bank # 433", "result": 32, "unit": "µg/mL"},
      {"measurement": "MIC", "setting": "Escherichia coli, KUB No. 5780, AR Bank # 434", "result": 16, "unit": "µg/mL"},
      {"measurement": "MIC", "setting": "Escherichia coli, KUB No. 5781, AR Bank # 435", "result": 32, "unit": "µg/mL"},
      {"measurement": "MIC", "setting": "Escherichia, KUB No. 57, AR Bank # 436 (row cut off)", "result": 32, "unit": "µg/mL"},
      {"measurement": "MIC", "setting": "Klebsiella aerogenes, Enterobacter aerogenes, KUB No. 5658, AR Bank # 161", "result": 0.12, "unit": "µg/mL"},
      {"measurement": "MIC", "setting": "Klebsiella aerogenes, Enterobacter aerogenes, KUB No. 5777, AR Bank # 431", "result": 1, "unit": "µg/mL"},
      {"measurement": "MIC", "setting": "Klebsiella oxytoca, KUB No. 5644, AR Bank # 147", "result": 0.06, "unit": "µg/mL"},
      {"measurement": "MIC", "setting": "Klebsiella oxytoca, KUB No. 5771, AR Bank # 375", "result": 0.12, "unit": "µg/mL"},
      {"measurement": "MIC", "setting": "Klebsiella oxytoca, KUB No. 5776, AR Bank # 380", "result": 0.5, "unit": "µg/mL"},
      {"measurement": "MIC", "setting": "Klebsiella ozaenae, KUB No. 5548, AR Bank# 51", "result": 16, "unit": "µg/mL"},
      {"measurement": "MIC", "setting": "Klebsiella pnemnonine, KUB No. 5758, AR Bank # 362", "result": 64, "unit": "µg/mL"},
      {"measurement": "MIC", "setting": "Klebsiella pneumoniae, KUB No. 55, AR Bank# 47", "result": 64, "unit": "µg/mL"},
      {"measurement": "MIC", "setting": "Klebsiella pneumoniae, KUB No. 5531, AR Bank# 34", "result": 0.5, "unit": "µg/mL"},
      {"measurement": "MIC", "setting": "Klebsiella pneumoniae, KUB No. 5536, AR Bank# 39", "result": 8, "unit": "µg/mL"},
      {"measurement": "MIC", "setting": "Klebsiella pneumoniae, KUB No. 5537, AR Bank# 40", "result": 32, "unit": "µg/mL"},
      {"measurement": "MIC", "setting": "Klebsiella pneumoniae, KUB No. 5538, AR Bank# 41", "result": 8, "unit": "µg/mL"},
      {"measurement": "MIC", "setting": "Klebsiella pneumoniae, KUB No. 5540, AR Bank# 43", "result": 2, "unit": "µg/mL"},
      {"measurement": "MIC", "setting": "Klebsiella pneumoniae, KUB No. 5541, AR Bank# 44", "result": 8, "unit": "µg/mL"},
      {"measurement": "MIC", "setting": "Klebsiella pneumoniae, KUB No. 5543, AR Bank# 46", "result": 32, "unit": "µg/mL"},
      {"measurement": "MIC", "setting": "Klebsiella pneumoniae, KUB No. 5546, AR Bank# 49", "result": "> 64", "unit": "µg/mL"},
      {"measurement": "MIC", "setting": "Klebsiella pneumoniae, KUB No. 5603, AR Bank # 106", "result": "> 64", "unit": "µg/mL"},
      {"measurement": "MIC", "setting": "Klebsiella pneumoniae, KUB No. 5604, AR Bank # 107", "result": 64, "unit": "µg/mL"},
      {"measurement": "MIC", "setting": "Klebsiella pneumoniae, KUB No. 5606, AR Bank # 109", "result": "> 64", "unit": "µg/mL"},
      {"measurement": "MIC", "setting": "Klebsiella pneumoniae, KUB No. 5609, AR Bank # 112", "result": 16, "unit": "µg/mL"},
      {"measurement": "MIC", "setting": "Klebsiella pneumoniae, KUB No. 5610, AR Bank # 113", "result": 16, "unit": "µg/mL"},
      {"measurement": "MIC", "setting": "Klebsiella pneumoniae, KUB No. 5612, AR Bank # 115", "result": 32, "unit": "µg/mL"},
      {"measurement": "MIC", "setting": "Klebsiella pneumoniae, KUB No. 5614, AR Bank # 117", "result": 4, "unit": "µg/mL"},
      {"measurement": "MIC", "setting": "Klebsiella pneumoniae, KUB No. 5617, AR Bank # 120", "result": 64, "unit": "µg/mL"},
      {"measurement": "MIC", "setting": "Klebsiella pneumoniae, KUB No. 5622, AR Bank # 125", "result": 64, "unit": "µg/mL"},
      {"measurement": "MIC", "setting": "Klebsiella pneumoniae, KUB No. 5623, AR Bank # 126", "result": 0.12, "unit": "µg/mL"},
      {"measurement": "MIC", "setting": "Klebsiella pneumoniae, KUB No. 5626, AR Bank # 129", "result": 64, "unit": "µg/mL"},
      {"measurement": "MIC", "setting": "Klebsiella pneumoniae, KUB No. 5632, AR Bank # 135", "result": 64, "unit": "µg/mL"},
      {"measurement": "MIC", "setting": "Klebsiella pneumoniae, KUB No. 5635, AR Bank # 138", "result": "> 64", "unit": "µg/mL"},
      {"measurement": "MIC", "setting": "Klebsiella pneumoniae, KUB No. 5636, AR Bank # 139", "result": 8, "unit": "µg/mL"},
      {"measurement": "MIC", "setting": "Klebsiella pneumoniae, KUB No. 5637, AR Bank # 140", "result": 16, "unit": "µg/mL"},
      {"measurement": "MIC", "setting": "Klebsiella pneumoniae, KUB No. 5638, AR Bank # 141", "result": 8, "unit": "µg/mL"},
      {"measurement": "MIC", "setting": "Klebsiella pneumoniae, KUB No. 5639, AR Bank # 142", "result": 8, "unit": "µg/mL"}
    ]}
  ]
}
